# Results reported in patent US20040034082A1, “Utilization of pyrazoline derivatives in the preparation of a medicament for the prevention and/or treatment of proliferative cell diseases” (priority 2001, published 2004).
# Where two headings read alike, the source gives them in different places.
# Tests used:
# TD20 = test: Induction of apoptosis in tumour cell line TD20; type: cell-based, human; conditions: 100 μM
# Experimental: In order to obtain a deeper knowledge of the action mechanism of these compounds the capability to induce apoptosis in the tumour cell line TD20 of the compound of example 3 was studied (dose 100 μM).
# [1] = system: promoter of the human VEGF gene; test: Inhibition of the induction of VEGF: promoter-luciferase in transfected Caco-2 cells, TPA; type: cell-based; conditions: TPA 16 hours, read-out: Inhibition of the induction of VEGF IC-50
# Excerpt: This activity has been studied determining the inhibition of the induction of the expression of VEGF. The increased expression of vascular-endothelial growth factor (VEGF) has been related to tumour progression and angiogenesis. VEGF is a proangiogenic factor, promoting mitogenesis, migration and an increased vascular permeability of in vitro endothelial cells. It has been shown recently that COX-2 can regulate the angiogenesis process induced by colon cancer cells, increasing the expression of proangiogenic factors by said cells. Inhibition of COX-2 may block this process, inhibiting the expression of some of these factors, such as VEGF.
# (§1) In order to study the antiangiogenic activity of the products with general formula (I), the expression of the VEGF promoter was studied in a basal and stimulated situation using the Caco-2 human colon carcinoma cell line, temporally transfected with a vector containing the promoter f the human VEGF gene. Once the test conditions were established the capability of the product studied to inhibit the expression of the VEGF and TF genes was studied by measuring the luciferase activity of their promoters.
# In the test 1.25×10^5 Caco-2 cells were used temporally transfected with t corresponding DNA in 500 μl of DEMEM-10% FCS medium in 24 dimple plates. […]
# MDAMB 453 = test: Cytotoxicity (XTT kit), mammary carcinoma cell line MDAMB 453; type: cell-based; conditions: Homo sapiens, MDA-MB-453, MDAMB 453, read-out: % Viability of mammary cancer cells ± SD
# Experimental: The anti-tumoral activity of the compounds with general formula (I) was studied, determining their effect on a mammary carcinoma cell line (MDAMB 453). The cell line was cultured in a DMEM medium (Life Technologies) supplemented with 10% foetal bovine serum (Life Technologies) at 37° C. and 5% CO2.
# (§2) Cytotoxicity tests were carried out using the XTT kit (Boehringer-Manheim) which measures the cell capability to metabolise a tetrazoyl salt to formazan.
# TF = test: Inhibition of the induction of TF: promoter-luciferase in transfected Caco-2 cells, TPA; type: cell-based; conditions: Homo sapiens, TPA 16 hours, read-out: Inhibition of the induction of TF IC-50
# Excerpt: In turn, VEGF also induces the expression of Tissue Factor (TF) in monocyte membranes, epithelial cells and endothelium. Although the main function of TF is to initiate the coagulation cascade, it can transduce intracellular signals participating in metastasis and angiogenesis associated to tumours. TF facilitates in vivo growth of the tumour, favouring angiogenesis.
# as §1
# In the test 1.25×10^5 Caco-2 cells were used temporally transfected with t corresponding DNA in 500 μl of DEMEM-10% FCS medium in 24 dimple plates. The cells were pre-treated for 1 hour with the compounds to be tested, and later stimulated with TPA for 16 hours. Afterwards cell extracts were obtained and their luciferase activity examined, determining the protein concentration.
# NC59 cells = test: Signal transduction paths associated to apoptosis in NC59 cells; type: cell-based, human; conditions: 100 μM, 5 and 20 hours of exposure
# Experimental: The signal transduction paths associated to the apoptosis process were then studied. After exposing NC59 cells to a 100 μM concentration of the compound of example 3, the expression levels were studied for p53, FAK and β-actine and the activation level of MAP kinases, JNK and PKB/Akt, after 5 and 20 hours of exposure.
# TD 20 = test: Cytotoxicity (XTT kit), human colon carcinoma cell line TD20; type: cell-based; conditions: for IC50: read-out: IC-50 (cytotoxicity)
# Experimental: (§3) The anti-tumoral activity of the compounds with general formula (I) was studied, determining their effect on cell lines of human colon carcinoma (TD 20 and NC 59). The two cell lines have the wild protein K-Ras. TD20 contains a mutation of the p53 suppressor gene, while NC59 has the p53 wild protein.
# (§4) Both cell lines were cultured in a DMEM medium (Life Technologies) supplemented with 10% foetal bovine serum (Life Technologies) at 37° C. and 5% CO2.
# as §2
# NC59 = test: Cytotoxicity (XTT kit), human colon carcinoma cell line NC59; type: cell-based; conditions: for IC50: read-out: IC-50 (cytotoxicity)
# Experimental: as §3, §4, §2
# [2] = Homo sapiens, Colon carcinoma cell, 1 μM, read-out: % Viability of colorectal cancer cells ± SD
# [3] = Homo sapiens, Colon carcinoma cell, 20 μM, read-out: % Viability of colorectal cancer cells ± SD
# [4] = Homo sapiens, Colon carcinoma cell, 30 μM, read-out: % Viability of colorectal cancer cells ± SD
# [5] = Homo sapiens, Colon carcinoma cell, 40 μM, read-out: % Viability of colorectal cancer cells ± SD
# [6] = Homo sapiens, Colon carcinoma cell, 60 μM, read-out: % Viability of colorectal cancer cells ± SD
# [7] = Homo sapiens, Colon carcinoma cell, 100 μM, read-out: % Viability of colorectal cancer cells ± SD
# [8] = Homo sapiens, Colon carcinoma cell
smiles,measurement,setting,value
"NS(=O)(=O)c1ccc(N2N=C(C(F)(F)F)CC2c2ccc(F)cc2F)cc1 (racemic) [Example 3, 1-(4-aminosulphonylphenyl)-5(2,4-difluorophenyl)-4,5-dihydro-3-trifluoromethyl-1H-pyrazol]",apoptotic cells,TD20; after 24 h,20%
same,apoptotic cells,TD20; after 48 h,80%
same,IC50,[1],20 µg/mL
same,viability at 1 µM,MDAMB 453; 1 μM,94.8 ± 8.71%
same,viability at 20 µM,MDAMB 453; 20 μM,31.5 ± 9.12%
same,viability at 40 µM,MDAMB 453; 40 μM,12.8 ± 4.8%
same,viability at 60 µM,MDAMB 453; 60 μM,5.97 ± 5.06%
same,viability at 80 µM,MDAMB 453; 80 μM,2.84 ± 1.71%
same,IC50,TF,25 µg/mL
same,"signal transduction paths activated (p53, FAK, β-actine expression; MAP kinases, JNK, PKB/Akt activation)",NC59 cells,"activation of signal transduction paths other than p53, JNK or p38"
same,viability at 1 µM,TD 20; [2],98.6 ± 2.83%
same,viability at 20 µM,TD 20; [3],84.5 ± 3.05%
same,viability at 30 µM,TD 20; [4],66.3 ± 5.84%
same,viability at 40 µM,TD 20; [5],27.4 ± 4.12%
same,viability at 60 µM,TD 20; [6],1.79 ± 2.09%
same,viability at 100 µM,TD 20; [7],0.69 ± 0.01%
same,IC50,TD 20; [8],34 µM
same,IC50,TD 20,33.9 µM
same,viability at 1 µM,NC59; [2],99.64 ± 0.51%
same,viability at 20 µM,NC59; [3],76.5 ± 8.7%
same,viability at 30 µM,NC59; [4],56.5 ± 0.25%
same,viability at 40 µM,NC59; [5],16.7 ± 10.5%
same,viability at 60 µM,NC59; [6],1.16 ± 0.83%
same,viability at 100 µM,NC59; [7],0%
same,IC50,NC59; [8],30 µM
same,IC50,NC59,29.9 µM
